For assay [1], the system named is B16F10 mouse melanoma cells. As to the kind of experiment: B16F10 IFNγ-induced cellular growth inhibition assay. To be noted: B16-F10, with 0.5 ng/mL IFNγ, read-out: B16F10 GI IC50. Format: cell-based. The essentials: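 B16F10 cells grown in DMEM+10% FBS, with or without 0.5 ng/mL final mouse IFNγ, and dosed in triplicate at 100 μM to 0.001 μM final (0.1% DMSO). Confluence imaged every 6 h for 5 days; percent growth inhibition versus DMSO/with-IFNγ control taken once DMSO/no-IFNγ wells exceeded 95% confluence, giving IC50.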

Assay [2] deals with T1, His tagged PTPN2 (TC45) protein (Homo sapiens, UniProt P17706).
T1 construct: made in house
T1 sequence (P17706 with tags, fused parts or gaps isoform P17706-2): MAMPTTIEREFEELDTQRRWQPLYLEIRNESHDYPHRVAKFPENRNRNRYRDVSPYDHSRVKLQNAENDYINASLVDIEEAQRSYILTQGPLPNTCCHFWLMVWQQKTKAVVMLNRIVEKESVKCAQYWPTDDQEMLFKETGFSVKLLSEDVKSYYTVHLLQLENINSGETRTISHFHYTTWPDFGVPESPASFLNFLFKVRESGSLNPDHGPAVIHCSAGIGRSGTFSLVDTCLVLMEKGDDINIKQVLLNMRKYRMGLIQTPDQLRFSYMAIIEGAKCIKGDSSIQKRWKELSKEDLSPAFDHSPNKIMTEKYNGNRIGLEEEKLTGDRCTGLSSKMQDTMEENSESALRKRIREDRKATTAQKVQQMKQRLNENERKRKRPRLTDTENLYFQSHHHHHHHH
The assay can be described thus: Mobility shift assay used to determine potency of PTPN2 inhibitors. It counts as biochemical. The settings on record: enzyme 0.5 nM, substrate 2 μM; read-out: PTPN2 MSA IC50. The essentials: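 Enzyme (0.5 nM) preincubated with compound (12-point, 1:3 dilution) 10 min at room temperature in 50 mM HEPES pH 7.5, 1 mM EGTA, 10 mM EDTA, 0.01% Tween 20, 2 mM DTT; OG488-labelled phospho-insulin-receptor peptide substrate (2 μM) added for 10 min, then quenched. Microfluidic mobility shift (ex 488/em 530 nm) gave % conversion; IC50 from % inhibition.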

For assay [3], the target named is T2, His tagged full-length PTPN1 protein (Homo sapiens, UniProt P18031).
T2 construct: made in house
T2 sequence (P18031 with tags, fused parts or gaps): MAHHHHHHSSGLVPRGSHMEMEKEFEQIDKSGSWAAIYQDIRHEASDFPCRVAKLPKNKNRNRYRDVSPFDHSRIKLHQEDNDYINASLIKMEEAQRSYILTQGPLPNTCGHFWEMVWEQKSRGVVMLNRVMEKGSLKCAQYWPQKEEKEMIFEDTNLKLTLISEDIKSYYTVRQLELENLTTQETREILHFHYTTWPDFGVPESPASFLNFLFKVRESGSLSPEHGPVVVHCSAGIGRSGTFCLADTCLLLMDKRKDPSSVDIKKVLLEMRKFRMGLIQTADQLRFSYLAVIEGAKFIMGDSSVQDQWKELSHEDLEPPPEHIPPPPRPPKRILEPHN
As to the kind of experiment: Mobility shift assay (MSA) used to determine potency of PTPN1 inhibitors. To be noted: enzyme 0.5 nM, substrate 2 μM. It counts as biochemical. The essentials:
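Full-length His-tagged human PTPN1 (0.5 nM) was preincubated 10 min at room temperature with compound (12-point, 1:3 dilution) in HEPES pH 7.5 buffer with EGTA, EDTA, Tween 20 and DTT. A 2 μM fluorescent phospho-insulin receptor peptide was then added for 10 min before quench. Mobility-shift % conversion gave % inhibition and IC50.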

Where only a bound is given, the exact number is not on record here.

With `O=C1CN(c2c(O)cc3c(c2F)CC(NCCC2CCCCC2)CC3)S(=O)(=O)N1` (stereo not drawn) [Compound 173, 5-{7-[(2-cyclohexylethyl)amino]-1-fluoro-3-hydroxy-5,6,7,8-tetrahydronaphthalen-2-yl}-1λ^6,2,5-thiadiazolidine-1,1,3-trione], the IC50 in assay [1] was less than 1000 nM; in assay [2], 1 to 10 nM; in assay [3] it was 1 to 10 nM.
For the compound `CC(C)(C)CCNC1CCc2cc(O)c(N3CC(=O)NS3(=O)=O)c(F)c2C1` (stereo not drawn) [Compound 174, 5-{7-[(3,3-dimethylbutyl)amino]-1-fluoro-3-hydroxy-5,6,7,8-tetrahydronaphthalen-2-yl}-1λ^6,2,5-thiadiazolidine-1,1,3-trione], the IC50 was less than 1000 nM in assay [1], 1 to 10 nM in assay [2] and 1 to 10 nM in assay [3].
In the case of `CCCCNC1CCc2cc(O)c(N3CC(=O)NS3(=O)=O)c(F)c2C1` (stereo not drawn) [Compound 175, 5-[7-(butylamino)-1-fluoro-3-hydroxy-5,6,7,8-tetrahydronaphthalen-2-yl]-1λ^6,2,5-thiadiazolidine-1,1,3-trione], the IC50 in assay [1] is less than 1000 nM; in assay [2] it was 1 to 10 nM; in assay [3] it was 10 to 100 nM.
As to `O=C1CN(c2c(O)cc3c(c2F)CC(NCCC2CCCC2)CC3)S(=O)(=O)N1` (stereo not drawn) [Compound 178, 5-{7-[(2-cyclopentylethyl)amino]-1-fluoro-3-hydroxy-5,6,7,8-tetrahydronaphthalen-2-yl}-1λ^6,2,5-thiadiazolidine-1,1,3-trione], the figures for the IC50 in assay [1], in assay [2] and in assay [3] were less than 1000 nM, less than 1 nM and 1 to 10 nM, respectively.
For the compound `O=C1CN(c2c(O)cc3c(c2F)CC(NCCO)CC3)S(=O)(=O)N1` (stereo not drawn) [Compound 180, 5-{1-fluoro-3-hydroxy-7-[(2-hydroxyethyl)amino]-5,6,7,8-tetrahydronaphthalen-2-yl}-1λ^6,2,5-thiadiazolidine-1,1,3-trione], the IC50 is 1000 to 10000 nM in assay [1], 10 to 100 nM in assay [2] and greater than 100 nM in assay [3].
The corresponding values for `O=C1CN(c2c(O)cc3c(c2F)CC(NCCC2CCC2)CC3)S(=O)(=O)N1` (stereo not drawn) [Compound 185, 5-{7-[(2-cyclobutylethyl)amino]-1-fluoro-3-hydroxy-5,6,7,8-tetrahydronaphthalen-2-yl}-1λ^6,2,5-thiadiazolidine-1,1,3-trione] are less than 1000 nM, 1 to 10 nM and 1 to 10 nM.
In the case of `CC(C)C(O)CNC1CCc2cc(O)c(N3CC(=O)NS3(=O)=O)c(F)c2C1` (stereo not drawn) [Compound 187, 5-{1-fluoro-3-hydroxy-7-[(2-hydroxy-3-methylbutyl)amino]-5,6,7,8-tetrahydronaphthalen-2-yl}-1λ^6,2,5-thiadiazolidine-1,1,3-trione], the IC50 was less than 1000 nM in assay [1], 1 to 10 nM in assay [2] and 1 to 10 nM in assay [3].
Consider `O=C1CN(c2c(O)cc3c(c2F)CC(NCC(O)C2CC2)CC3)S(=O)(=O)N1` (stereo not drawn) [Compound 188, 5-{7-[(2-cyclopropyl-2-hydroxyethyl)amino]-1-fluoro-3-hydroxy-5,6,7,8-tetrahydronaphthalen-2-yl}-1λ^6,2,5-thiadiazolidine-1,1,3-trione], for which the results for the IC50 in assay [1], in assay [2] and in assay [3] were less than 1000 nM, 10 to 100 nM and 10 to 100 nM, respectively.
With `C[Si](C)(C)CCCNC1CCc2cc(O)c(N3CC(=O)NS3(=O)=O)c(F)c2C1` (stereo not drawn) [Compound 189, 5-(1-fluoro-3-hydroxy-7-{[3-(trimethylsilyl)propyl]amino}-5,6,7,8-tetrahydronaphthalen-2-yl)-1λ^6,2,5-thiadiazolidine-1,1,3-trione], the IC50 is 1000 to 10000 nM in assay [1], 1 to 10 nM in assay [2] and greater than 100 nM in assay [3].
Take `C[Si](C)(O)CCCNC1CCc2cc(O)c(N3CC(=O)NS3(=O)=O)c(F)c2C1` (stereo not drawn) [Compound 190, 5-[1-fluoro-3-hydroxy-7-({3-[hydroxy(dimethyl)silyl]propyl}amino)-5,6,7,8-tetrahydronaphthalen-2-yl]-1λ^6,2,5-thiadiazolidine-1,1,3-trione]: the IC50 is 1000 to 10000 nM in assay [1], 1 to 10 nM in assay [2] and 10 to 100 nM in assay [3].
For `CC(C)(O)CCOC1CCc2cc(O)c(N3CC(=O)NS3(=O)=O)c(F)c2C1` (stereo not drawn) [Compound 197, 5-[1-fluoro-3-hydroxy-7-(3-hydroxy-3-methylbutoxy)-5,6,7,8-tetrahydronaphthalen-2-yl]-1λ^6,2,5-thiadiazolidine-1,1,3-trione], the IC50 in assay [1] was 1000 to 10000 nM; in assay [2], 10 to 100 nM; in assay [3], 10 to 100 nM.
With `CCC(C)CCN[C@@H]1CCc2cc(O)c(N3CC(=O)NS3(=O)=O)c(F)c2C1` (stereo partly drawn) [Compound 203, 5-{(7R)-1-fluoro-3-hydroxy-7-[(3-methylpentyl)amino]-5,6,7,8-tetrahydronaphthalen-2-yl}-1λ^6,2,5-thiadiazolidine-1,1,3-trione], the results for the IC50 in assay [1], in assay [2] and in assay [3] were less than 1000 nM, less than 1 nM and 1 to 10 nM, respectively.
The corresponding values for `O=C1CN(c2c(O)cc3c(c2F)CC(NCCC(F)F)CC3)S(=O)(=O)N1` (stereo not drawn) [Compound 223, 5-{7-[(3,3-difluoropropyl)amino]-1-fluoro-3-hydroxy-5,6,7,8-tetrahydronaphthalen-2-yl}-1λ^6,2,5-thiadiazolidine-1,1,3-trione] are less than 1000 nM, 10 to 100 nM and 1 to 10 nM.
For the compound `O=C1CN(c2c(O)cc3c(c2F)CN(CCC2CC4CCC2O4)CC3)S(=O)(=O)N1` (stereo not drawn) [Compound 225, 5-{8-fluoro-6-hydroxy-2-[2-(7-oxabicyclo[2.2.1]heptan-2-yl)ethyl]-1,2,3,4-tetrahydroisoquinolin-7-yl}-1λ^6,2,5-thiadiazolidine-1,1,3-trione], the IC50 in assay [1] was 1000 to 10000 nM; in assay [2], 1 to 10 nM; in assay [3], 10 to 100 nM.
`O=C1CN(c2c(O)cc3c(c2F)CC(NCC[C@H]2C[C@@H](OC(F)(F)F)C2)CC3)S(=O)(=O)N1` (stereo partly drawn) [Compound 234, 5-[1-fluoro-3-hydroxy-7-({2-[(1s,3r)-3-(trifluoromethoxy)cyclobutyl]ethyl}amino)-5,6,7,8-tetrahydronaphthalen-2-yl]-1λ^6,2,5-thiadiazolidine-1,1,3-trione]: the IC50 in assay [1] was in the range of 1000 to 10000 nM; in assay [2] it was 10 to 100 nM; in assay [3], 1 to 10 nM.
The corresponding values for `O=C1CN(c2c(O)cc3c(c2F)CC(N[C@H]2C[C@@H](OC(F)(F)F)C2)CC3)S(=O)(=O)N1` (stereo partly drawn) [Compound 235, 5-(1-fluoro-3-hydroxy-7-{[(1s,3s)-3-(trifluoromethoxy)cyclobutyl]amino}-5,6,7,8-tetrahydronaphthalen-2-yl)-1λ^6,2,5-thiadiazolidine-1,1,3-trione] are 1000 to 10000 nM, 10 to 100 nM and 10 to 100 nM.
With `CCCC1(NNC(=O)c2ccccc2)CCc2cc(O)c(N3CC(=O)NS3(=O)=O)c(F)c2C1` (stereo not drawn) [Compound 241, N′-[8-fluoro-6-hydroxy-2-propyl-7-(1,1,4-trioxo-1λ^6,2,5-thiadiazolidin-2-yl)-1,2,3,4-tetrahydronaphthalen-2-yl]benzohydrazide], the results for the IC50 in assay [1], in assay [2] and in assay [3] were 10000 to 100000 nM, 10 to 100 nM and 10 to 100 nM, respectively.
Regarding `CCCC1(N)CCc2cc(O)c(N3CC(=O)NS3(=O)=O)c(F)c2C1` (stereo not drawn) [Compound 255, 5-(7-amino-1-fluoro-3-hydroxy-7-propyl-5,6,7,8-tetrahydronaphthalen-2-yl)-1λ^6,2,5-thiadiazolidine-1,1,3-trione], the IC50 in assay [1] was 1000 to 10000 nM; in assay [2], greater than 100 nM; in assay [3], 10 to 100 nM.
As for `CC(C)CCNCC1Cc2cc(O)c(N3CC(=O)NS3(=O)=O)c(F)c2C1` (stereo not drawn) [Compound 268, 5-(4-fluoro-6-hydroxy-2-{[(3-methylbutyl)amino]methyl}-2,3-dihydro-1H-inden-5-yl)-1λ^6,2,5-thiadiazolidine-1,1,3-trione], the IC50 in assay [1] was in the range of 1000 to 10000 nM; in assay [2], 10 to 100 nM; in assay [3] it was 10 to 100 nM.

A word on the IC50: it is the concentration that gives 50% inhibition.

For the origin of these results see patent US10851073B2, “Protein tyrosine phosphatase inhibitors and methods of use thereof” (Calico Life Sciences LLC, priority 2019, dated 2020).
